Measured values published in patent US20040253718A1, “Methods of producing neurons” (priority 2003, published 2004).

Key:
[1] = tested on: UMC from skin and adipose tissue; test: Culture of non-adherent UMC from skin and adipose tissue; format: cell-based, human
Method: Cells were harvested and enriched in vitro for UMC by initiation of cultures from a skin biopsy obtained from a normal healthy human volunteer as follows. Biopsies of about 10 to about 200 mm^3 were obtained from the post auriculum area, and fibroblast tissue culture initiated as described above using DMEM containing 4500 mg/L D-glucose, 2 mM L-glutamine, nonessential amino acids, and 10% FBS. Colonies of non-adherent, actively growing cells were observed after adherent fibroblasts had reached full confluence in passage two or three. This process could be shortened by initiation of the culture in low serum and by the presence of 5 ng/ml aFGF, or by growth of the cells in a plasma clot directly from tissue (see Example 2) with addition of 300 mM CaCl2 to a final concentration of 15 mM. […] The colonies were collected by aspiration of culture medium containing the floating colonies and centrifugation of this medium. The cells pelleted by centrifugation were transferred to new tissue culture vessels by direct seeding in fresh culture medium containing aFGF and heparin (DMEM containing 4500 mg/L D-glucose, 2 mM L-glutamine, 2.5% heat inactivated FBS, 5 ng/mL recombinant human aFGF, and 5 μg/mL heparin). The cell suspension was added to fresh tissue culture flasks, which were incubated at 37° C. […]

dermal-derived UMC = test: Culture of UMC in plasma clots to generate neurons; format: cell-based, human; details: aFGF as the only growth factor in the culture medium
Method: The presence of higher concentration of Ca^2+ than normally present in culture medium (i.e., about 2 mM) was essential for growth of neurons in the plasma clot UMC cultures.
Lyophilized bovine plasma (Sigma Aldrich Co., St. Louis, Mo.; Cat. No. P-4639) was reconstituted with an appropriate volume of tissue culture medium not containing heparin, e.g., DMEM or Neurobasal medium (see above). An appropriate volume of a stock solution of CaCl2 (e.g., 300 mM) was added to a series of plastic tissue culture dishes (one set having a diameter of 30 mm and another set having a diameter of 60 mm) so as to give a final concentration of 15 mM after addition of plasma. Plasma was added to the culture dishes (1 ml to 30 mm dishes and 2 ml to the 60 mm dishes), which were swirled in order to mix the CaCl2 and plasma. […]
The dishes were then incubated at room temperature or 37° C. until the plasma had clotted. […] The dishes were then stored in a tissue culture incubator at 37° C. in at atmosphere of 10% CO2 until ready for use. A small quantity (about 5 cells to about 10^5 cells per clot) of dermal-derived UMC prepared as described in Example 1 was added to each dish and the cells were allowed to settle onto each clot. […]

aFGF: recombinant human acidic fibroblast growth factor
morphology of cells in culture ([1]; in the presence of aFGF): morphologically homogeneous in appearance and had a cobblestone-like morphology
fate of cells in culture ([1]; upon removal of aFGF from the culture medium): most of the cells fully differentiated into adherent fibroblasts
growth of human neurons (dermal-derived UMC): Enhanced growth
